Assay results: the supplement of paper PMC10307832

Columns and labels:
Assay in all cases: relative viability (nuclei count vs DMSO), 5 days (fraction); higher = more cells survive
[1] = compound: COC1=CC=C(C=C1)CN2C=CC3=C2C=C(C=C3)C(=O)NO + Nc1nc2[nH]cc(CCc3ccc(C(=O)N[C@@H](CCC(=O)O)C(=O)O)cc3)c2c(=O)[nH]1 [Pemetrexed] (partner 0.2 µM)
How it was run: (§1)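 Cells from lung cancer lines were seeded into 1536-well plates and, one day later, dosed by pin tool. Treatments were either a single drug or a fixed dose of an anchor drug with five library-drug doses (not always all listed) in √10 steps. After 5 days, nuclei were stained in a one-step fixation (final 0.05% Triton X-100, 1% formaldehyde, 1 ug/ml Hoechst) and counted on 4× images, and relative viability is the treated-to-vehicle nuclei ratio, as the median of duplicate plates.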

Veliparib + Phenformin = compound: C[C@]1(c2nc3c(C(N)=O)cccc3[nH]2)CCCN1 [Veliparib] + N=C(N)NC(=N)NCCc1ccccc1 [Phenformin] (partner 250 µM)
How it was run: as §1

[2] = compound: COC1=CC=C(C=C1)CN2C=CC3=C2C=C(C=C3)C(=O)NO + Cc1cc(Nc2cc(N3CCN(C)CC3)nc(Sc3ccc(NC(=O)C4CC4)cc3)n2)n[nH]1 [Tozasertib] (partner 0.1 µM)
How it was run: as §1

[3] = compound: COC1=CC=C(C=C1)CN2C=CC3=C2C=C(C=C3)C(=O)NO + NC(=O)Nc1cc(-c2cccc(F)c2)sc1C(=O)N[C@H]1CCCNC1 [AZD7762] (partner 0.2 µM)
How it was run: as §1

| Cell Line | relative viability ([1]; first compound 0.08 µM) | relative viability ([1]; first compound 0.253 µM) | relative viability ([1]; first compound 0.8 µM) | relative viability ([1]; first compound 2.53 µM) | relative viability ([1]; first compound 8 µM) | relative viability (Veliparib + Phenformin; first compound 0.02 µM) | relative viability (Veliparib + Phenformin; first compound 0.06325 µM) | relative viability (Veliparib + Phenformin; first compound 0.2 µM) | relative viability (Veliparib + Phenformin; first compound 0.6325 µM) | relative viability (Veliparib + Phenformin; first compound 2 µM) | relative viability ([2]; first compound 0.08 µM) | relative viability ([2]; first compound 0.253 µM) | relative viability ([2]; first compound 0.8 µM) | relative viability ([2]; first compound 2.53 µM) | relative viability ([2]; first compound 8 µM) | relative viability ([3]; first compound 0.08 µM) | relative viability ([3]; first compound 0.253 µM) | relative viability ([3]; first compound 0.8 µM) | relative viability ([3]; first compound 2.53 µM) | relative viability ([3]; first compound 8 µM) |
| --- | --- | --- | --- | --- | --- | --- | --- | --- | --- | --- | --- | --- | --- | --- | --- | --- | --- | --- | --- | --- |
| NCI-H1563 | 0.489 | 0.708 | 0.839 | 0.728 | 0.761 | 0.594 | 0.638 | 0.686 | 0.643 | 0.667 | – | – | – | – | – | – | – | – | – | – |
| NCI-H1623 | – | – | – | – | – | – | 0.514 | 0.605 | 0.583 | 0.545 | 0.407 | 0.411 | 0.421 | 0.42 | 0.436 | – | – | – | – | – |
| NCI-H1648 | 0.794 | 0.853 | 0.829 | 0.717 | 0.641 | – | – | – | – | – | 0.415 | 0.573 | 0.479 | 0.399 | 0.473 | 0.523 | 0.584 | 0.723 | 0.447 | 0.525 |
| NCI-H1650 | 0.286 | 0.428 | 0.378 | 0.392 | 0.308 | – | 0.473 | 0.519 | 0.404 | 0.34 | 0.391 | 0.379 | 0.447 | 0.416 | 0.326 | – | – | – | – | – |
| NCI-H1703 | – | – | – | – | – | – | – | – | – | – | – | – | – | – | – | 0.176 | 0.167 | 0.146 | 0.123 | 0.121 |
| NCI-H1792 | 0.907 | 0.952 | 1 | 1.05 | 0.832 | 0.212 | 0.213 | 0.398 | 0.328 | 0.247 | – | – | – | – | – | 0.755 | 0.792 | 0.716 | 0.592 | 0.55 |
| NCI-H2009 | 1.05 | 1.12 | 1 | 0.983 | 1.1 | 0.455 | 0.452 | 0.483 | 0.457 | 0.473 | 0.65 | 0.514 | 0.741 | 0.73 | 0.64 | – | – | – | – | – |
| NCI-H2023 | 0.23 | 0.199 | 0.207 | 0.208 | 0.209 | 0.39 | 0.417 | 0.39 | 0.384 | 0.411 | 0.296 | 0.314 | 0.415 | 0.389 | 0.396 | – | – | – | – | – |
| NCI-H2228 | 0.311 | 0.347 | 0.336 | 0.343 | 0.298 | 0.209 | 0.301 | 0.276 | 0.284 | 0.236 | – | 0.229 | 0.291 | 0.228 | 0.185 | – | – | – | – | – |
| SK-LU-1 | 0.942 | 0.973 | 1 | 1.01 | 0.953 | 0.588 | 0.524 | 0.544 | 0.512 | 0.506 | 0.279 | 0.339 | 0.325 | 0.337 | 0.3 | – | – | – | – | – |
| SK-MES-1 | 0.968 | 0.985 | 0.9 | 0.896 | 0.849 | 0.707 | 0.626 | 0.628 | 0.599 | 0.663 | 0.816 | 0.895 | 0.868 | 0.874 | 0.81 | – | – | – | – | – |
| UMC-11 | 0.568 | 0.854 | 0.823 | 0.793 | 0.784 | 0.334 | 0.316 | 0.312 | 0.284 | 0.314 | – | 0.204 | 0.215 | 0.215 | 0.223 | – | – | – | – | – |
